# Test results as given in ChEMBL document CHEMBL3046669, “Insecticide resistance of the oriental fruit fly, Bactrocera dorsalis (Hendel) (Diptera: Tephritidae), in mainland China” (2011).
# Legend:
# Assay type in all cases: functional
# Bactrocera dorsalis [1] = assay: Resistance ratio of LC50 for adult Bactrocera dorsalis YJ07 to LC50 for adult Bactrocera dorsalis after 24 hr
# Bactrocera dorsalis [2] = assay: Resistance ratio of LC50 for adult Bactrocera dorsalis MM08 to LC50 for adult Bactrocera dorsalis after 24 hr
# Bactrocera dorsalis [3] = assay: Resistance ratio of LC50 for adult Bactrocera dorsalis FZ07 to LC50 for adult Bactrocera dorsalis after 24 hr
# Bactrocera dorsalis [4] = assay: Resistance ratio of LC50 for adult Bactrocera dorsalis GZ07 to LC50 for adult Bactrocera dorsalis after 24 hr
# Bactrocera dorsalis [5] = assay: Insecticidal activity against adult Bactrocera dorsalis HY07 assessed as mortality after 24 hr; details: HY07, 24 h
# Bactrocera dorsalis [6] = assay: Resistance ratio of LC50 for adult Bactrocera dorsalis HK08 to LC50 for adult Bactrocera dorsalis after 24 hr
# Bactrocera dorsalis [7] = assay: Insecticidal activity against adult Bactrocera dorsalis WX07 assessed as mortality after 24 hr; details: WX07, 24 h
# Bactrocera dorsalis [8] = assay: Insecticidal activity against adult Bactrocera dorsalis C-R-45 assessed as mortality
# Bactrocera dorsalis [9] = assay: Resistance ratio of LC50 for adult Bactrocera dorsalis ZJ07 to LC50 for adult Bactrocera dorsalis after 24 hr
# Bactrocera dorsalis [10] = assay: Insecticidal activity against adult Bactrocera dorsalis HZ07 assessed as mortality after 24 hr; details: HZ07, 24 h
# Bactrocera dorsalis [11] = assay: Insecticidal activity against adult Bactrocera dorsalis WX08 assessed as mortality after 24 hr; details: WX08, 24 h
# Bactrocera dorsalis [12] = assay: Insecticidal activity against adult Bactrocera dorsalis HZ08 assessed as mortality after 24 hr; details: HZ08, 24 h
# Bactrocera dorsalis [13] = assay: Resistance ratio of LC50 for adult Bactrocera dorsalis QY08 to LC50 for adult Bactrocera dorsalis after 24 hr
# Bactrocera dorsalis [14] = assay: Resistance ratio of LC50 for adult Bactrocera dorsalis QY07 to LC50 for adult Bactrocera dorsalis after 24 hr
# Bactrocera dorsalis [15] = assay: Resistance ratio of LC50 for adult Bactrocera dorsalis YJ08 to LC50 for adult Bactrocera dorsalis after 24 hr
# Bactrocera dorsalis [16] = assay: Resistance ratio of LC50 for adult Bactrocera dorsalis GZ08 to LC50 for adult Bactrocera dorsalis after 24 hr
# Bactrocera dorsalis [17] = assay: Insecticidal activity against adult Bactrocera dorsalis FZ08 assessed as mortality after 24 hr; details: FZ08, 24 h
# Bactrocera dorsalis [18] = assay: Insecticidal activity against adult Bactrocera dorsalis CS07 assessed as mortality after 24 hr; details: CS07, 24 h
# Bactrocera dorsalis [19] = assay: Insecticidal activity against adult Bactrocera dorsalis ZJ07 assessed as mortality after 24 hr; details: ZJ07, 24 h
# Bactrocera dorsalis [20] = assay: Resistance ratio of LC50 for adult Bactrocera dorsalis FZ08 to LC50 for adult Bactrocera dorsalis after 24 hr
# Bactrocera dorsalis [21] = assay: Insecticidal activity against adult Bactrocera dorsalis YJ08 assessed as mortality after 24 hr; details: YJ08, 24 h
# Bactrocera dorsalis [22] = assay: Insecticidal activity against adult Bactrocera dorsalis NN08 assessed as mortality after 24 hr; details: NN08, 24 h
# Bactrocera dorsalis [23] = assay: Resistance ratio of LC50 for adult Bactrocera dorsalis CS07 to LC50 for adult Bactrocera dorsalis after 24 hr
# Bactrocera dorsalis [24] = assay: Resistance ratio of LC50 for adult Bactrocera dorsalis HY07 to LC50 for adult Bactrocera dorsalis after 24 hr
# Bactrocera dorsalis [25] = assay: Resistance ratio of LC50 for adult Bactrocera dorsalis HZ08 to LC50 for adult Bactrocera dorsalis after 24 hr
# Bactrocera dorsalis [26] = assay: Resistance ratio of LC50 for adult Bactrocera dorsalis HY08 to LC50 for adult Bactrocera dorsalis after 24 hr
# Bactrocera dorsalis [27] = assay: Insecticidal activity against adult Bactrocera dorsalis QY08 assessed as mortality after 24 hr; details: QY08, 24 h
# Bactrocera dorsalis [28] = assay: Resistance ratio of LC50 for adult Bactrocera dorsalis NN07 to LC50 for adult Bactrocera dorsalis after 24 hr
# Bactrocera dorsalis [29] = assay: Resistance ratio of LC50 for adult Bactrocera dorsalis CH08 to LC50 for adult Bactrocera dorsalis after 24 hr
# Bactrocera dorsalis [30] = assay: Insecticidal activity against adult Bactrocera dorsalis GZ07 assessed as mortality after 24 hr; details: GZ07, 24 h
# Bactrocera dorsalis [31] = assay: Insecticidal activity against adult Bactrocera dorsalis HK08 assessed as mortality after 24 hr; details: HK08, 24 h
# Bactrocera dorsalis [32] = assay: Resistance ratio of LC50 for adult Bactrocera dorsalis NN08 to LC50 for adult Bactrocera dorsalis after 24 hr
# Bactrocera dorsalis [33] = assay: Insecticidal activity against adult Bactrocera dorsalis CH08 assessed as mortality after 24 hr; details: CH08, 24 h
# Bactrocera dorsalis [34] = assay: Resistance ratio of LC50 for adult Bactrocera dorsalis WX08 to LC50 for adult Bactrocera dorsalis after 24 hr
# Bactrocera dorsalis [35] = assay: Insecticidal activity against adult Bactrocera dorsalis MM08 assessed as mortality after 24 hr; details: MM08, 24 h
# Bactrocera dorsalis [36] = assay: Resistance ratio of LC50 for adult Bactrocera dorsalis CS08 to LC50 for adult Bactrocera dorsalis after 24 hr
# Bactrocera dorsalis [37] = assay: Insecticidal activity against adult Bactrocera dorsalis CH07 assessed as mortality after 24 hr; details: CH07, 24 h
# Bactrocera dorsalis [38] = assay: Insecticidal activity against adult Bactrocera dorsalis YJ07 assessed as mortality after 24 hr; details: YJ07, 24 h
# Bactrocera dorsalis [39] = assay: Resistance ratio of LC50 for adult Bactrocera dorsalis MM07 to LC50 for adult Bactrocera dorsalis after 24 hr
# Bactrocera dorsalis [40] = assay: Insecticidal activity against adult Bactrocera dorsalis GZ08 assessed as mortality after 24 hr; details: GZ08, 24 h
# Bactrocera dorsalis [41] = assay: Insecticidal activity against adult Bactrocera dorsalis assessed as mortality after 24 hr; details: for LC50: Bactrocera dorsalis, 24 h
# Bactrocera dorsalis [42] = assay: Insecticidal activity against adult Bactrocera dorsalis FZ07 assessed as mortality after 24 hr; details: FZ07, 24 h
# Bactrocera dorsalis [43] = assay: Insecticidal activity against adult Bactrocera dorsalis C-R-48 assessed as mortality
# Bactrocera dorsalis [44] = assay: Resistance ratio of LC50 for adult Bactrocera dorsalis HK07 to LC50 for adult Bactrocera dorsalis after 24 hr
# Bactrocera dorsalis [45] = assay: Resistance ratio of LC50 for adult Bactrocera dorsalis CH07 to LC50 for adult Bactrocera dorsalis after 24 hr
# Bactrocera dorsalis [46] = assay: Resistance ratio of LC50 for adult Bactrocera dorsalis C-R-48 to LC50 for adult Bactrocera dorsalis
# Bactrocera dorsalis [47] = assay: Resistance ratio of LC50 for adult Bactrocera dorsalis C-R-45 to LC50 for adult Bactrocera dorsalis
# Bactrocera dorsalis [48] = assay: Resistance ratio of LC50 for adult Bactrocera dorsalis HZ07 to LC50 for adult Bactrocera dorsalis after 24 hr
# Bactrocera dorsalis [49] = assay: Insecticidal activity against adult Bactrocera dorsalis CS08 assessed as mortality after 24 hr; details: CS08, 24 h
# Bactrocera dorsalis [50] = assay: Insecticidal activity against adult Bactrocera dorsalis NN07 assessed as mortality after 24 hr; details: NN07, 24 h
# Bactrocera dorsalis [51] = assay: Insecticidal activity against adult Bactrocera dorsalis QY07 assessed as mortality after 24 hr; details: QY07, 24 h
# Bactrocera dorsalis [52] = assay: Insecticidal activity against adult Bactrocera dorsalis HK07 assessed as mortality after 24 hr; details: HK07, 24 h
# Bactrocera dorsalis [53] = assay: Resistance ratio of LC50 for adult Bactrocera dorsalis WX07 to LC50 for adult Bactrocera dorsalis after 24 hr
# Bactrocera dorsalis [54] = assay: Insecticidal activity against adult Bactrocera dorsalis MM07 assessed as mortality after 24 hr; details: MM07, 24 h
# Bactrocera dorsalis [55] = assay: Insecticidal activity against adult Bactrocera dorsalis HY08 assessed as mortality after 24 hr; details: HY08, 24 h
# Bactrocera dorsalis [56] = assay: Insecticidal activity against adult Bactrocera dorsalis T-R-48 assessed as mortality
# Bactrocera dorsalis [57] = assay: Resistance ratio of LC50 for adult Bactrocera dorsalis T-R-48 to LC50 for adult Bactrocera dorsalis
# Bactrocera dorsalis [58] = assay: Insecticidal activity against adult Bactrocera dorsalis T-R-45 assessed as mortality
# Bactrocera dorsalis [59] = assay: Resistance ratio of LC50 for adult Bactrocera dorsalis T-R-45 to LC50 for adult Bactrocera dorsalis
structure (smiles),measurement,setting,value
CC1(C)[C@H](C=C(Cl)Cl)[C@H]1C(=O)O[C@@H](C#N)c1cccc(Oc2ccccc2)c1 [BETA-CYPERMETHRIN],RatioLC50,Bactrocera dorsalis [1],1.1
same,RatioLC50,Bactrocera dorsalis [2],13.72
same,RatioLC50,Bactrocera dorsalis [3],5.34
same,RatioLC50,Bactrocera dorsalis [4],18.6
same,LC50,Bactrocera dorsalis [5],32.7 mg/L
same,RatioLC50,Bactrocera dorsalis [6],12.17
same,LC50,Bactrocera dorsalis [7],23.9 mg/L
same,LC90,Bactrocera dorsalis [8],7082.07 mg/L
same,LC50,"Bactrocera dorsalis [8]; Bactrocera dorsalis, C-R-45",820 mg/L
same,RatioLC50,Bactrocera dorsalis [9],3.01
same,LC50,Bactrocera dorsalis [10],11.4 mg/L
same,LC50,Bactrocera dorsalis [11],110 mg/L
same,LC50,Bactrocera dorsalis [12],70.7 mg/L
same,RatioLC50,Bactrocera dorsalis [13],4.91
same,RatioLC50,Bactrocera dorsalis [14],6.08
same,RatioLC50,Bactrocera dorsalis [15],4.23
same,RatioLC50,Bactrocera dorsalis [16],9.71
same,LC50,Bactrocera dorsalis [17],20.4 mg/L
same,LC50,Bactrocera dorsalis [18],15.1 mg/L
same,LC50,Bactrocera dorsalis [19],7.49 mg/L
same,RatioLC50,Bactrocera dorsalis [20],8.17
same,LC50,Bactrocera dorsalis [21],10.5 mg/L
same,LC50,Bactrocera dorsalis [22],12.5 mg/L
same,RatioLC50,Bactrocera dorsalis [23],6.06
same,RatioLC50,Bactrocera dorsalis [24],13.14
same,RatioLC50,Bactrocera dorsalis [25],28.39
same,RatioLC50,Bactrocera dorsalis [26],17.06
same,LC50,Bactrocera dorsalis [27],12.2 mg/L
same,RatioLC50,Bactrocera dorsalis [28],3.19
same,RatioLC50,Bactrocera dorsalis [29],24.35
same,LC50,Bactrocera dorsalis [30],46.3 mg/L
same,LC50,Bactrocera dorsalis [31],30.3 mg/L
same,RatioLC50,Bactrocera dorsalis [32],5.02
same,LC50,Bactrocera dorsalis [33],60.6 mg/L
same,RatioLC50,Bactrocera dorsalis [34],44.03
same,LC50,Bactrocera dorsalis [35],34.2 mg/L
same,RatioLC50,Bactrocera dorsalis [36],5.93
same,LC50,Bactrocera dorsalis [37],64.1 mg/L
same,LC50,Bactrocera dorsalis [38],2.74 mg/L
same,RatioLC50,Bactrocera dorsalis [39],17
same,LC50,Bactrocera dorsalis [40],24.2 mg/L
same,LC90,Bactrocera dorsalis [41],3.6 mg/L
same,LC50,Bactrocera dorsalis [41],2.49 mg/L
same,LC50,Bactrocera dorsalis [42],13.3 mg/L
same,LC90,Bactrocera dorsalis [43],3959.5 mg/L
same,LC50,"Bactrocera dorsalis [43]; Bactrocera dorsalis, C-R-48",830 mg/L
same,RatioLC50,Bactrocera dorsalis [44],6.23
same,RatioLC50,Bactrocera dorsalis [45],25.74
same,RatioLC50,Bactrocera dorsalis [46],333.42
same,RatioLC50,Bactrocera dorsalis [47],329.3
same,RatioLC50,Bactrocera dorsalis [48],4.57
same,LC50,Bactrocera dorsalis [49],14.8 mg/L
same,LC50,Bactrocera dorsalis [50],7.95 mg/L
same,LC50,Bactrocera dorsalis [51],15.1 mg/L
same,LC50,Bactrocera dorsalis [52],15.5 mg/L
same,RatioLC50,Bactrocera dorsalis [53],9.59
same,LC50,Bactrocera dorsalis [54],42.3 mg/L
same,LC50,Bactrocera dorsalis [55],42.5 mg/L
COP(=O)(OC)C(O)C(Cl)(Cl)Cl (stereo unspecified) [TRICHLORFON],RatioLC50,Bactrocera dorsalis [1],5.25
same,RatioLC50,Bactrocera dorsalis [2],70.45
same,RatioLC50,Bactrocera dorsalis [3],12.32
same,RatioLC50,Bactrocera dorsalis [4],19.8
same,LC50,Bactrocera dorsalis [5],41.4 mg/L
same,RatioLC50,Bactrocera dorsalis [6],1.37
same,LC50,Bactrocera dorsalis [7],31.2 mg/L
same,LC90,Bactrocera dorsalis [56],635.27 mg/L
same,LC50,"Bactrocera dorsalis [56]; Bactrocera dorsalis, T-R-48",115 mg/L
same,RatioLC50,Bactrocera dorsalis [9],18.51
same,LC50,Bactrocera dorsalis [10],26.8 mg/L
same,LC50,Bactrocera dorsalis [11],22.7 mg/L
same,LC50,Bactrocera dorsalis [12],2.43 mg/L
same,RatioLC50,Bactrocera dorsalis [13],7.34
same,RatioLC50,Bactrocera dorsalis [14],11.53
same,RatioLC50,Bactrocera dorsalis [15],5.22
same,RatioLC50,Bactrocera dorsalis [16],8.87
same,LC50,Bactrocera dorsalis [17],32.4 mg/L
same,LC50,Bactrocera dorsalis [18],27.2 mg/L
same,LC50,Bactrocera dorsalis [19],29.7 mg/L
same,RatioLC50,Bactrocera dorsalis [20],20.2
same,LC50,Bactrocera dorsalis [21],8.38 mg/L
same,LC50,Bactrocera dorsalis [22],11.9 mg/L
same,RatioLC50,Bactrocera dorsalis [23],16.96
same,RatioLC50,Bactrocera dorsalis [57],71.58
same,RatioLC50,Bactrocera dorsalis [24],25.79
same,RatioLC50,Bactrocera dorsalis [25],1.51
same,RatioLC50,Bactrocera dorsalis [26],21.19
same,LC50,Bactrocera dorsalis [27],11.8 mg/L
same,RatioLC50,Bactrocera dorsalis [28],15.62
same,RatioLC50,Bactrocera dorsalis [29],17.91
same,LC50,Bactrocera dorsalis [30],31.8 mg/L
same,LC50,Bactrocera dorsalis [31],2.21 mg/L
same,RatioLC50,Bactrocera dorsalis [32],7.39
same,LC50,Bactrocera dorsalis [33],28.7 mg/L
same,RatioLC50,Bactrocera dorsalis [34],14.13
same,LC50,Bactrocera dorsalis [35],113 mg/L
same,RatioLC50,Bactrocera dorsalis [36],17.56
same,LC50,Bactrocera dorsalis [37],20.4 mg/L
same,LC50,Bactrocera dorsalis [38],8.43 mg/L
same,RatioLC50,Bactrocera dorsalis [39],17.78
same,LC50,Bactrocera dorsalis [40],14.2 mg/L
same,LC90,Bactrocera dorsalis [41],2.64 mg/L
same,LC50,Bactrocera dorsalis [41],1.61 mg/L
same,LC50,Bactrocera dorsalis [42],19.8 mg/L
same,RatioLC50,Bactrocera dorsalis [44],8.77
same,RatioLC50,Bactrocera dorsalis [45],12.71
same,LC90,Bactrocera dorsalis [58],322.86 mg/L
same,LC50,"Bactrocera dorsalis [58]; Bactrocera dorsalis, T-R-45",93.9 mg/L
same,RatioLC50,Bactrocera dorsalis [48],16.72
same,LC50,Bactrocera dorsalis [49],28.2 mg/L
same,LC50,Bactrocera dorsalis [50],25.1 mg/L
same,LC50,Bactrocera dorsalis [51],18.5 mg/L
same,LC50,Bactrocera dorsalis [52],14.1 mg/L
same,RatioLC50,Bactrocera dorsalis [53],19.46
same,LC50,Bactrocera dorsalis [54],28.5 mg/L
same,LC50,Bactrocera dorsalis [55],34 mg/L
same,RatioLC50,Bactrocera dorsalis [59],58.34
